Measurements: patent US8946234B2, “Halogen-substituted compounds” (Bayer CropScience AG, priority 2008, dated 2015)

What was measured:
[1] = log P from HPLC-MS, no method note printed; assay type: physicochemical; conditions: method not given
[2] = logP by HPLC on a C18 phase inversion column, EEC Directive 79/831 Annex V.A8, method b) (HP1100, 5-95% acetonitrile in 1.70 min); assay type: physicochemical; conditions: HPLC method b)
Experimental: ^b) Note regarding the determination of the log P values and mass detection: The log P values given were determined in accordance with EEC Directive 79/831 Annex V.A8 by HPLC (High Performance Liquid Chromatography) on a phase inversion column (C18). HP1100; 50*4.6 Zorbax Eclipse Plus C18 1.8 micron; eluent A: acetonitrile (0.1% formic acid); eluent B: water (0.08% formic acid); linear gradient from 5% acetonitrile to 95% acetonitrile in 1.70 min, then 95% acetonitrile for a further 1.00 min; oven temperature 55° C.; flow: 2.0 ml/min. The mass detection is carried out via the mass detector Micromass ZQ2000 from Waters.

| SMILES | chromatographic logP [1] | logP [2] |
| --- | --- | --- |
| Cn1nc(OCC(F)(F)F)cc1C(=O)O [1-Methyl-3-(2,2,2-trifluoroethoxy)-1H-pyrazole-5-carboxylic acid] | 1.65 | – |
| Cn1nc(C(F)(F)C(F)(F)F)c(I)c1C(=O)O [1-Methyl-3-pentafluoroethyl-4-iodo-1H-pyrazole-5-carboxylic acid] | 2.33 | – |
| Cn1nc(-c2ccc(C(F)(F)F)cc2)c(C(F)(F)F)c1C(=O)O [1-Methyl-4-(trifluoromethyl)-3-[4-(trifluoromethyl)phenyl]-1H-pyrazole-5-carboxylic acid] | 1.24 | – |
| O=C(O)c1cnc(C(F)(F)C(F)(F)F)nc1C(F)(F)C(F)(F)F [2,4-Bis(pentafluoroethyl)pyrimidine-5-carboxylic acid] | 2.24 | – |
| O=C(O)c1sc(C(F)(F)C(F)(F)F)nc1C(F)(F)F [2-(Pentafluoroethyl)-4-(trifluoromethyl)-1,3-thiazole-5-carboxylic acid] | 2.06 | – |
| Cc1nc(C(N)=O)c(C(F)(F)F)c(C(F)(F)C(F)(F)F)n1 [2-Methyl-6-(pentafluoroethyl)-5-(trifluoromethyl)pyrimidine-4-carboxamide] | 2.33 | – |
| Cn1nc(C(C)(C)F)c(C(F)(F)F)c1C(=O)O [3-(2-Fluoropropan-2-yl)-1-methyl-4-(trifluoromethyl)-1H-pyrazole-5-carboxylic acid] | 1.43 | – |
| CCCC(NC(=O)c1cc(NC(=O)c2c(C(F)(F)F)c(C(F)(F)C(F)(F)F)nn2C)ccc1Cl)C(F)(F)F (stereo not drawn) [Ik-298] | – | 4.11^b) |
| CC(CC(F)(F)F)NC(=O)c1cc(NC(=O)c2c(C(F)(F)F)c(C(F)(F)C(F)(F)F)nn2C)ccc1Cl (stereo not drawn) [Ik-299] | – | 3.63^b) |
| Cn1nc(C(F)(F)C(F)(F)F)c(C(F)(F)F)c1C(=O)Nc1ccc(Cl)c(C(=O)NC(C)(C)CC(F)(F)F)c1 [Ik-300] | – | 4.00^b) |
| CC(C)[C@H](NC(=O)c1cc(NC(=O)c2c(C(F)(F)F)c(C(F)(F)C(F)(F)F)nn2C)ccc1Cl)C(F)(F)F [Ik-310] | – | 3.89^b) |
| Cn1nc(C(F)(F)C(F)(F)F)c(C(F)(F)F)c1C(=O)Nc1ccc(Cl)c(C(=O)NC2CC2F)c1 (stereo not drawn) [Ik-311] | – | 3.28^b) |

Second part, the compound after the results:

| chromatographic logP [1] | logP [2] | SMILES |
| --- | --- | --- |
| – | 3.89^b) | CCC(NC(=O)c1cc(NC(=O)c2c(C(F)(F)F)c(C(F)(F)C(F)(F)F)nn2C)ccc1Cl)C(F)(F)F (stereo not drawn) [Ik-297] |
| – | 3.02^b) | Cn1nc(C(F)(F)C(F)(F)F)c(C(F)(F)F)c1C(=O)Nc1ccc(Cl)c(C(=O)NC(C)(C)CS(C)(=O)=O)c1 [Ik-301] |
| – | 3.78^b) | Cn1nc(C(F)(F)C(F)(F)F)c(C(F)(F)F)c1C(=O)Nc1ccc(Cl)c(C(=O)NCC(F)(F)C(F)(F)F)c1 [Ik-302] |
| – | 3.89^b) | CC(NC(=O)c1cc(NC(=O)c2c(C(F)(F)F)c(C(F)(F)C(F)(F)F)nn2C)ccc1Cl)c1cccc(F)c1 (stereo not drawn) [Ik-303] |
| – | 3.94^b) | Cc1cccc(CNC(=O)c2cc(NC(=O)c3c(C(F)(F)F)c(C(F)(F)C(F)(F)F)nn3C)ccc2Cl)c1 [Ik-304] |
| – | 3.89^b) | Cc1ccccc1CNC(=O)c1cc(NC(=O)c2c(C(F)(F)F)c(C(F)(F)C(F)(F)F)nn2C)ccc1Cl [Ik-305] |
| – | 3.94^b) | Cc1ccc(CNC(=O)c2cc(NC(=O)c3c(C(F)(F)F)c(C(F)(F)C(F)(F)F)nn3C)ccc2Cl)cc1 [Ik-306] |
| – | 3.78^b) | C[C@@H](NC(=O)c1cc(NC(=O)c2c(C(F)(F)F)c(C(F)(F)C(F)(F)F)nn2C)ccc1Cl)C(F)(F)F [Ik-307] |
| – | 3.94^b) | Cn1nc(C(F)(F)C(F)(F)F)c(C(F)(F)F)c1C(=O)Nc1ccc(Cl)c(C(=O)NCc2ccc(F)cc2F)c1 [Ik-308] |
| – | 3.94^b) | Cn1nc(C(F)(F)C(F)(F)F)c(C(F)(F)F)c1C(=O)Nc1ccc(Cl)c(C(=O)NCc2ccc(F)c(F)c2)c1 [Ik-309] |
| – | 3.73^b) | Cn1nc(C(F)(F)C(F)(F)F)c(C(F)(F)F)c1C(=O)Nc1ccc(Cl)c(C(=O)NCc2ccc(F)cc2)c1 [Ik-312] |
| – | 1.93^b) | Cn1nc(C(F)(F)C(F)(F)F)c(C(F)(F)F)c1C(=O)Nc1ccc(Cl)c(C(=O)NCc2ccncc2)c1 [Ik-313] |
